Laboratory results taken from ChEMBL document CHEMBL4613288, “Combined Peptide and Small-Molecule Approach toward Nonacidic THIQ Inhibitors of the KEAP1/NRF2 Interaction” (ACS Med Chem Lett, 2020).

Assay: Apparent permeability across apical to basolateral side in MDCK-MDR1 cells measured over 60 mins
Assay type: ADME, cell-based, Canis lupus familiaris
Conditions: dog

| Papp A→B at 1 h [×10⁻⁶ cm/s] | SMILES |
| --- | --- |
| 0.9 | O=C(O)[C@H]1CCCC[C@H]1C(=O)N1CCc2c(OCCO)cccc2[C@H]1CN1C(=O)c2ccccc2C1=O |
| 4.6 | O=C(OCc1ccccc1)[C@H]1CCCC[C@H]1C(=O)N1CCc2c(OS(=O)(=O)C(F)(F)F)cccc2C1CN1C(=O)c2ccccc2C1=O (some centres not stated) |
